Assay results as given in ChEMBL document CHEMBL1129894, “Dihydroxypyrrolidines C-linked to galactose. Total synthesis of a specific inhibitor of -mannosidases” (Bioorg Med Chem Lett, 1997).
Activity calls are given as the source filed them. The calls are words filed in the database; no cut-off is given here.

Legend:
[1] = tested on: Saccharomyces cerevisiae; assay: Inhibition of the enzyme alpha-glucosidase (maltase) from yeast was determined at 1 mM concentration of the compound; No inhibition
[2] = biological target: T1, Tissue alpha-L-fucosidase (Homo sapiens) (UniProt P04066); assay: Inhibition of the enzyme alpha-L-fucosidase from bovine epididymis was determined at 1 mM concentration of the compound; No inhibition; settings: Bos taurus, target entry is the homologue from another species
T1 sequence (whole entry): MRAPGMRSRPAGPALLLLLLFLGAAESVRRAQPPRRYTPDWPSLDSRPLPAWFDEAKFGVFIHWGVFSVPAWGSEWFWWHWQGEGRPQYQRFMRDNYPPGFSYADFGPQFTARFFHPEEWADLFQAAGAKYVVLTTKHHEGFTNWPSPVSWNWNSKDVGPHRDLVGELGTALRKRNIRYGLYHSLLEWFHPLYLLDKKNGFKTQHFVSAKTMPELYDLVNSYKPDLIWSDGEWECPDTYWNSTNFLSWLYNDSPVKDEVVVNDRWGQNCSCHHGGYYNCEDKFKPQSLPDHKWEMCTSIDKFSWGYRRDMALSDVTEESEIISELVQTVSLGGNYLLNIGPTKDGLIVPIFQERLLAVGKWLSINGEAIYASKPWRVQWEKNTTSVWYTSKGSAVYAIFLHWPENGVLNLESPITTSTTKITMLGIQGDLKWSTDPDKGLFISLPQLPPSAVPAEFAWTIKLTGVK

[3] = tested on: Caldicellulosiruptor saccharolyticus; assay: Inhibition of the enzyme beta-glucosidase from Caldocellum saccharolyticum was determined at 1 mM concentration of the compound; No inhibition
[4] = Inhibition of the enzyme amyloglucosidase from Rhizopus mold was determined at 1 mM concentration of the compound; No inhibition
[5] = Inhibition of the enzyme beta-galactosidase from Aspergillus oryzae was determined at 1 mM concentration of the compound; No inhibition
[6] = tested on: Prunus dulcis; assay: Inhibition of the enzyme beta-glucosidase from almonds was determined at 1 mM concentration of the compound; No inhibition
[7] = tested on: Saccharomyces cerevisiae; assay: Inhibition of the enzyme alpha-glucosidase (isomaltase) from baker yeast was determined at 1 mM concentration of the compound; No inhibition
[8] = biological target: T2, Beta-galactosidase (Bos taurus) (UniProt Q58D55); assay: Inhibition of the enzyme beta-galactosidase from bovine liver was determined at 1 mM concentration of the compound; No inhibition
T2 sequence (whole entry): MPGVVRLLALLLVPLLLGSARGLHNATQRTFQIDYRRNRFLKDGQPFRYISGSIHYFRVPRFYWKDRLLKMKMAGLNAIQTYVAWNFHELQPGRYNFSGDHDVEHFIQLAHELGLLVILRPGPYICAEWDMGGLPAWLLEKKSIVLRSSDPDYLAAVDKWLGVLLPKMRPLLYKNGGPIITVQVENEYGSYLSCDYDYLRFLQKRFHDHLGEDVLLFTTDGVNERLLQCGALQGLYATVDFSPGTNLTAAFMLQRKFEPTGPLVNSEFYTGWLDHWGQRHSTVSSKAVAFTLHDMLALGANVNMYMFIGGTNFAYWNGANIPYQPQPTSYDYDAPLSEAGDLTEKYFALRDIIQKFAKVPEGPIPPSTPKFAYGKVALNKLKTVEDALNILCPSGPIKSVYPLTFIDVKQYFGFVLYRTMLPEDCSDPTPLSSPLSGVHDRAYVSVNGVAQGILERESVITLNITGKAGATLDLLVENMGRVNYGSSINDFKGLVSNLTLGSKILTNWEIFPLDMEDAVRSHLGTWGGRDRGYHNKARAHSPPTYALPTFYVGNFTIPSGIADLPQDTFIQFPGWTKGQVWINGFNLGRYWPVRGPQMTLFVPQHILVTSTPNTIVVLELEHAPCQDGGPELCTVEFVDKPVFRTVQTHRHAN

[9] = species: Bos taurus; assay: Inhibition of the enzyme beta-N-acetylglucosaminidase from bovine epididymis A was determined at 1 mM concentration of the compound; No inhibition
[10] = biological target: T3, Beta-galactosidase (Aspergillus niger) (UniProt P29853); assay: Inhibition of the enzyme beta-galactosidase from Aspergillus niger was determined at 1 mM concentration of the compound; No inhibition
T3 sequence (whole entry): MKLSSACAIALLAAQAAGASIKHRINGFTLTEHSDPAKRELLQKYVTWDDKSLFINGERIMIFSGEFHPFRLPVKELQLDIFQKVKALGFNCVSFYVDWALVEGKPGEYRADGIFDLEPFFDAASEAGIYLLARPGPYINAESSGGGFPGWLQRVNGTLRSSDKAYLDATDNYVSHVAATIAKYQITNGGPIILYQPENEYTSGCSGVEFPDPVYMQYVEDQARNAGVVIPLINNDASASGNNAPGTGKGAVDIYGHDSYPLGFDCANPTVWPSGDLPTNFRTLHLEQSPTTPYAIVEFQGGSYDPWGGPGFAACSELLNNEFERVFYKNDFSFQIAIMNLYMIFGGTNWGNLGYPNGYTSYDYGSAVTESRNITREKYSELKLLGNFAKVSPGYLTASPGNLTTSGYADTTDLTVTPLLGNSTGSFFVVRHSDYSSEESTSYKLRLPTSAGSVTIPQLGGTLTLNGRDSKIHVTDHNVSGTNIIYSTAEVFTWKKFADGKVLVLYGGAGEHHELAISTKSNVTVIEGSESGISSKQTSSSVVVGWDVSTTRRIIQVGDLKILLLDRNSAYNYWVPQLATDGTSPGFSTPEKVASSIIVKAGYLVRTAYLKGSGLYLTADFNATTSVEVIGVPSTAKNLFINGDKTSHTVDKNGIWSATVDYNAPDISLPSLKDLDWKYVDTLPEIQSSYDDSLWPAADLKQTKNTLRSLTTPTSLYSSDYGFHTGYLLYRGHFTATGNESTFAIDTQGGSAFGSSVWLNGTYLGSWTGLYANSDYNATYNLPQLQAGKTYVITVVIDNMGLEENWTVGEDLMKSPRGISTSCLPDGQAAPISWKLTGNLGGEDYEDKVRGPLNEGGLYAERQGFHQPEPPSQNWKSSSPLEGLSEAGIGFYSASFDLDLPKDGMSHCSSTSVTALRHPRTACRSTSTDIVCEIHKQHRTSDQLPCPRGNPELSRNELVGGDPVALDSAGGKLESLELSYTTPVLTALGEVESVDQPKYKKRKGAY

[11] = biological target: Beta-galactosidase (Escherichia coli) (UniProt Q8VNN2); assay: Inhibition of the enzyme beta-galactosidase from Escherichia coli was determined at 1 mM concentration of the compound; No inhibition
[12] = Inhibition of the enzyme Alpha-galactosidase from coffee beans was determined at 1 mM concentration of the compound; No inhibition; settings: Coffea arabica
[13] = Inhibition of the enzyme beta-galactosidase from jack beans was determined at 1 mM concentration of the compound; No inhibition
[14] = biological target: T1, Tissue alpha-L-fucosidase (Homo sapiens); assay: Inhibition of the enzyme alpha-L-fucosidase from human placenta was determined at 1 mM concentration of the compound; No inhibition
[15] = biological target: Glucoamylase (Aspergillus niger) (UniProt P69328); assay: Inhibition of the enzyme amyloglucosidase from Aspergillus niger was determined at 1 mM concentration of the compound; No inhibition
[16] = Inhibition of the enzyme alpha-mannosidase from almonds was determined at 1 mM concentration of the compound; No inhibition
[17] = species: Bos taurus; assay: Inhibition of the enzyme beta-N-acetylglucosaminidase from bovine epididymis B was determined at 1 mM concentration of the compound; No inhibition
[18] = tested on: Aspergillus niger; assay: Inhibition of the enzyme beta-D-xylosidase from Aspergillus niger was determined at 1 mM concentration of the compound; No inhibition
[19] = Inhibition of the enzyme Alpha-galactosidase from Aspergillus niger was determined at 1 mM concentration of the compound; No inhibition
[20] = tested on: Oryza sativa; assay: Inhibition of the enzyme alpha-glucosidase (maltase) from rice was determined at 1 mM concentration of the compound; No inhibition
[21] = tested on: jack; assay: Inhibition of the enzyme beta-N-acetylglucosaminidase from jack beans was determined at 1 mM concentration of the compound; No inhibition
[22] = Inhibition of the enzyme Alpha-galactosidase from Escherichia coli was determined at 1 mM concentration of the compound; No inhibition
[23] = biological target: T4, Alpha-N-acetylgalactosaminidase (Homo sapiens) (UniProt P17050); assay: Inhibition of the enzyme alpha-N-acetylgalactosaminidase from chicken liver was determined at 1 mM concentration of the compound; No inhibition; settings: Gallus gallus, target entry is the homologue from another species
T4 sequence (whole entry): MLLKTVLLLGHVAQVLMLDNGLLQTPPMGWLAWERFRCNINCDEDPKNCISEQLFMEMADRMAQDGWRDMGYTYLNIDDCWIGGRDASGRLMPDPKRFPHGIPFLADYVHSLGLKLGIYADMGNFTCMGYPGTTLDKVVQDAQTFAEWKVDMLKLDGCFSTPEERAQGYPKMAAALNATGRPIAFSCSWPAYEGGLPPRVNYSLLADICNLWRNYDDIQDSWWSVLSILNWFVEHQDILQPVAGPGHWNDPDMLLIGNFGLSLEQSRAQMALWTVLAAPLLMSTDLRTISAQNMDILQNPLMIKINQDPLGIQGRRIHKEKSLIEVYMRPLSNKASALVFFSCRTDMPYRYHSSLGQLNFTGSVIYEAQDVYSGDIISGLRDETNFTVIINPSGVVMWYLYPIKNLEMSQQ

[24] = Inhibition of the enzyme Beta-mannosidase from Helix pomatia was determined at 1 mM concentration of the compound; No inhibition
[25] = Inhibition of the enzyme alpha-mannosidase from almonds was determined at 1 mM concentration of the compound; Moderate inhibition

Glucoamylase (Aspergillus niger), sequence (P69328 whole entry): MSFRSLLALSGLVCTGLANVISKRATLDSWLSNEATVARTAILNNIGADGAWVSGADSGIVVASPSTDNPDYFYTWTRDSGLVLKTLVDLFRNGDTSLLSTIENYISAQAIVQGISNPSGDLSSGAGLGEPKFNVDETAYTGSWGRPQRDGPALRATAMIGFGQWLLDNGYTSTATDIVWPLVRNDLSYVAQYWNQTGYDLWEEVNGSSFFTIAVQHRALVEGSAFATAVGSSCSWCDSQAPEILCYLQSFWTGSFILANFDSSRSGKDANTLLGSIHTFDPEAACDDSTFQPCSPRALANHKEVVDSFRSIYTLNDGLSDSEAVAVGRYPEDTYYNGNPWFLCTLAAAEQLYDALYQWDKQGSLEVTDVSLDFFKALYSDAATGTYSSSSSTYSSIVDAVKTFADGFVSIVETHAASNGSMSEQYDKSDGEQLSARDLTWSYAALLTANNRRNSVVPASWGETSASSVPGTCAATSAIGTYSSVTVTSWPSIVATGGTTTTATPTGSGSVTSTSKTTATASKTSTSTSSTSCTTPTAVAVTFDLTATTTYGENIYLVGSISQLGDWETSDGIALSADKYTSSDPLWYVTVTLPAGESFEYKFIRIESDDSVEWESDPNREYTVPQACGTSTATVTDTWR
Beta-galactosidase (Escherichia coli), sequence (Q8VNN2 whole entry, looked up): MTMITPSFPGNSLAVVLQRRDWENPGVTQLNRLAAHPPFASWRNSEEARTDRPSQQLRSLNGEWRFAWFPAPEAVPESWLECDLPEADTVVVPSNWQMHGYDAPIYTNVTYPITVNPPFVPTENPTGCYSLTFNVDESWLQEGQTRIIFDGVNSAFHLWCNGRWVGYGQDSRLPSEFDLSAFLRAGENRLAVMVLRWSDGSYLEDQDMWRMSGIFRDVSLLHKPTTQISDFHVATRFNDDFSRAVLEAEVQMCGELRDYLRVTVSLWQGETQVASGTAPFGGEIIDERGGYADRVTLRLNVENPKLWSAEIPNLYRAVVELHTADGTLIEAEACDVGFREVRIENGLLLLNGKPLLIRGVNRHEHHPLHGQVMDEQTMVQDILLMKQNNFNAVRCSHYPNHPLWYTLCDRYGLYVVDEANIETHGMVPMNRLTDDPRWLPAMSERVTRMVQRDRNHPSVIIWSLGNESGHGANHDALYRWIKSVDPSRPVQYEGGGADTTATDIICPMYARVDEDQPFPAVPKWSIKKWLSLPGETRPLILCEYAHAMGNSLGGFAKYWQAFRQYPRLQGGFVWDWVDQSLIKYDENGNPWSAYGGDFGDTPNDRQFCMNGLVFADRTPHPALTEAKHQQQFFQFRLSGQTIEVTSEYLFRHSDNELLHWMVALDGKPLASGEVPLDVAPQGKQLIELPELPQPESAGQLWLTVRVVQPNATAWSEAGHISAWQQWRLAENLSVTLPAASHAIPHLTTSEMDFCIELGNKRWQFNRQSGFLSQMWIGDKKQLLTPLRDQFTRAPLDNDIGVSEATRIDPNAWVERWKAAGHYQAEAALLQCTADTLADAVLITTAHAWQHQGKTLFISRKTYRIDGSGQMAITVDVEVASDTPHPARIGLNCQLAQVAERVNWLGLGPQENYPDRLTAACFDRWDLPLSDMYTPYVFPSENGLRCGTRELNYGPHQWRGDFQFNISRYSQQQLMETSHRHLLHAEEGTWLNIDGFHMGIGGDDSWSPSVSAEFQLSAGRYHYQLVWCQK

inhibition [1] | inhibition [2] | inhibition [3] | inhibition [4] | inhibition [5] | inhibition [6] | inhibition [7] | inhibition [8] | inhibition [9] | inhibition [10] | inhibition [11] | inhibition [12] | inhibition [13] | inhibition [14] | inhibition [15] | inhibition [17] | inhibition [18] | inhibition [19] | inhibition [20] | inhibition [21] | SMILES | other results
inactive | inactive | inactive | inactive | inactive | inactive | inactive | inactive | inactive | inactive | inactive | inactive | inactive | inactive | inactive | inactive | inactive | inactive | inactive | inactive | OCC1O[C@H](O)C(O)[C@@H]([C@H](O)C2NCC(O)C2O)C1O (stereo partly drawn) | inhibition [16]: inactive; inhibition [22]: inactive; inhibition [23]: inactive; inhibition [24]: inactive
inactive | inactive | inactive | inactive | inactive | inactive | inactive | inactive | inactive | inactive | inactive | inactive | inactive | inactive | inactive | inactive | inactive | inactive | inactive | inactive | OCC1O[C@H](O)[C@H](O)[C@@H]([C@H](O)C2NCC(O)C2O)C1O (stereo partly drawn) | inhibition [22]: inactive; inhibition [23]: inactive; inhibition [24]: inactive; inhibition [25]: 27%
